# Source: patent US7416876B2, “N-carbobenzyloxy (N-CBZ)-deprotecting enzyme” (Bristol-Meyers Squibb Company, priority 2001, dated 2008)
# B1: CBZ-deprotecting enzyme: enzyme purified from Sphingomonas paucimobilis ATCC 202027 that removes CBZ from protected amines and alcohols; SEQ ID NO:2 (protein, listed as Sphingomonas paucimobilis)
# chain: MVQPTPTPQSELPGLIARDMEGLMTLYRDLHANPELSLQEVNTAAKLAKRLKAMKFDVTEKVGGTGVVAVMKNGSGPVLLIRADMDGLPVVEQTGLDFASKVRTKTPEGVETGVMHACGHDTHMTAFIETAKLLSSQKDKWKGTLVMILQPAEEVGKGARDMLEDGLYTRFPRPTHAIAFHDAANLQAGVVGYTPGYALANVDSVDIVVKGLGGHGAYPQTTRDPIVLGSRIVTSLQTLVSREQDPQDPAVVTVGSFQAGAKHNIIPDQALLLLTVRSYSDETRAKLIKGIERIARGEAIAAGVPDDKMPVVSVKDEFTPSTYNPPEFAEQMGALLKGHFAEGRVVKTPAVMGGEDFGRFYRADKSINSFIFWVGGVPADKMAAAQAGQITLPSLHSPFWAPEADKVIATASEAMTVLAMDILKKD
# Tests used:
# [1] = system: CBZ-deprotecting enzyme (cell extracts of Sphingomonas paucimobilis ATCC 202027); test: CBZ-deprotection using cell extract; assay type: biochemical; conditions: 42° C., 18-20 hours, HPLC
# Procedure: (§1) HPLC analysis was performed using a Hewlett-Packard (HP) 1090 instrument with a Vydac C-18 reverse phase column. The mobile phase solvent A containing 0.1% trifluoroacetic acid (TFA) in water and solvent B containing 0.1% TFA in 70% acetonitrile: 30% water. The following gradient of solvent A and B was used for the separation of substrates and products:
# (§2) 0-15 min: 50% B,15-25 min: 100% B, 25-26 min: 0% B, and 26-30 min: 0% B. The flow rate was 1 mL/min. The column temperature was ambient, and the detection wavelength was at 215 nm. Under these conditions, the retention times for Compound A, Compound B, CBZ-L-Phenylalanine and L-Phenylalanine are 15.48 min., 7.28 min., 16.99 min. and 7.35 min., respectively. All other CBZ-containing compounds were also analyzed using these conditions.
# Preparation of cell extracts were carried out at 4-7° C. Cells were washed with 50 mM potassium phosphate buffer, pH 7.0, and the washed cells (100 g) were suspended in 500 mL of buffer A (50 mM phosphate buffer, pH 7.0 containing 10% glycerol, and 2 mM DTT). To the cell suspensions, 1 mM phenylmethylsulfonyl fluoride (PMSF) solution in isopropanol was added. Cell suspensions (20% W/V, wet cells) were passed through a Microfluidizer (Microfluidics, Inc) at 12,000 psi (two passages) and disintegrated cells were centrifuged at 25,000×g for 30 min at 4° C. The supernatant solution obtained after centrifugation is referred to as cell extract.
# The cell extracts was used in deprotecting the CBZ-group from various compounds. It was useful in deprotecting CBZ-groups in various processes. Various D and L-CBZ-protected amino acids were incubated with the cell extract at 42° C. for 18 -20 hours. The reactions were stopped by addition of 2 volumes of 50% acetonitrile containing 0.4% trifluro acetic acid (TFA). The results shown in table 2 indicate that the enzyme is specific in hydrolyzing the CBZ-group from CBZ-protected L-amino acids.
# [2] = system: recombinant N-CBZ-deprotecting enzyme; test: Deprotection with recombinant enzyme (cell extract from E. coli BL21 (DE3)(pBMS2000-cbz)); assay type: biochemical, Sphingomonas paucimobilis; conditions: 0.5 mg substrate, 0.5 ml cell extract, 28° C., 1 hr, HPLC
# Procedure: The reaction contained 0.5 mg of CBZ-L-phe and 0.5 ml of cell extract from E. coli BL21 (DE3)(pBMS2000-cbz) that expressed the deprotecting enzyme. Preparation of cell extract was as follows: 2 g of recombinant cells were suspended in 10 mL buffer A (50 mM phosphate buffer, pH 7.5, 1 mM EDTA), sonicated for 2 minutes (20 seconds pulse on and 30 seconds pulse off) using a model 550 Sonic Dismembrator from Misonix Inc., Farmingdale, N.Y. The disintegrated cells were centrifuged for 15 min at 8000 rpm at 4° C. and the resulting supernatant, referred to as a cell extract, was used for these studies. The reactions were carried out in a culture tube at 28° C. After 1 hr, samples were quenched with 1 ml of acetonitrile and analyzed by HPLC (described earlier).
# [3] = system: CBZ-deprotecting enzyme; test: Deprotection of CBZ-containing compounds with purified CBZ-deprotecting enzyme; assay type: biochemical, Sphingomonas paucimobilis; conditions: for % Conversion: purified enzyme
# Procedure: Compound A or CBZ-phenylalanine at 0.5mg was incubated with 0.4 mL of cell extract/fractions in 50 mM phosphate buffer, pH 7 at 45° C. for 18 hours. The reaction is stopped by the addition 1 ml of 50% acetonitrile containing 0.4% TFA. The samples were filtered and analyzed by HPLC for product and starting material. All the purification steps were carried out at room temperature. The purification of the enzyme was carried out using CBZ-L-phenylalanine as the substrate. The cell extract, prepared as above, was batch adsorbed with DEAE-cellulose (pre-equilibrated with buffer A) for 2 hours. The follow-through, which contained the active enzyme, was precipitated with ammonium sulfate (516 g/L) with constant stirring for 2 hours. The resulting precipitate obtained by centrifugation (15,000 rpm at 4° C.) was solubilized in buffer A containing 1M ammonium sulfate, loaded on to phenylsepharose (20 mL column which was pre-equlibriaiated with buffer A containing 1M ammonium sulfate). The column was sequentially washed with the buffer A containing 1M ammonium sulfate, 0.5M ammonium sulfate and 0.2M ammonium sulfate. Finally, the enzyme was eluted with buffer A. The fractions containing active enzyme were pooled (30 mL) and concentrated with Amicon PM-10 membrane (8 mL). The enzyme was then loaded on to S-200 gel-filtration column (400 mL column). The enzyme was eluted with buffer A with a flow rate of 0.8 mL/min. With these steps the enzyme was purified more than 150-fold with a specific activity of 13.9 units/mg protein (table 3). The unit is defined as μmole of product formed/min/mg of protein. The enzyme is a […] protein with a molecular weight of 154,000 daltons with a subunit molecular weight of 45,000 daltons, as determined by SDS-PAGE. The purified enzyme prepared as described in this section has been used to deprotect CBZ-containing compounds as shown in table 4.
# [4] = system: Sphingomonas paucimobilis; test: Biotransformation (CBZ deprotection) using whole cells; assay type: cell-based; conditions: whole cells grown in medium B with 25 mg substrate, 28° C., 48 hours, HPLC
# Procedure: In this process, the Sphingomonas paucimobilis was grown in 25 mL of medium B containing 25 mg of substrate (Compound A or CBZ-L-Phenylalanine) in a 250-mL flask. The flask was incubated at 28° C. and 250 rpm on a shaker. After 48 hours of biotransformation, the cells were removed by centrifugation. The supernatant containing the product [4S-(4α,7α,10aβ)]-Octahydro-5-oxo-4-amino-7H-pyrido-[2,1-b] [1,3]thiazepine-7-carboxylic acid, methyl ester (Compound B) or L-Phenylalanine was analyzed by HPLC.
# as §1, §2
molecule,measurement,setting,value
O=C(N[C@H](Cc1ccccc1)C(=O)O)OCc1ccccc1 [N-α-CBZ-D-phenylalanine],% Conversion,[1],0%
O=C(O)[C@H]1CCCN1C(=O)OCc1ccccc1 [N-α-CBZ-D-Proline],% Conversion,[1],0%
"O=C(N[C@@H](Cc1ccccc1)C(=O)O)OCc1ccccc1 [CBZ-L-Phenylalanine, N-α-CBZ-L-phenylalanine]",deprotection of the substrate,[2],complete deprotection
same,% Conversion,[3],100%
same,% Conversion,[4],100%
same,% Conversion,[1],100%
O=C(N[C@H](Cc1ccc(O)cc1)C(=O)O)OCc1ccccc1 [N-α-CBZ-D-tyrosine],% Conversion,[1],1.58%
"NCCCC[C@H](NC(=O)OCc1ccccc1)C(=O)O [N-α-CBZ-L-Lysine, N-α-CBZ-L-lysine]",% Conversion,[1],52%
O=C(NCCCC[C@H](NC(=O)OCc1ccccc1)C(=O)O)OCc1ccccc1 [N-α-ε-(CBZ)2-L-Lysine],% Conversion,[1],24%
CC(C)C[C@H](NC(=O)OCc1ccccc1)C(=O)O [N-α-CBZ-L-Leucine],% Conversion,[1],100%
CC(C)C[C@@H](NC(=O)OCc1ccccc1)C(=O)O [N-α-CBZ-D-Leucine],% Conversion,[1],1.2%
O-α-CBZ-L-tyrosine,% Conversion,[1],100%
"COC(=O)[C@@H]1CCC[C@@H]2SCC[C@H](NC(=O)OCc3ccccc3)C(=O)N21 [Compound A, [4S-(4α,7α, 10aβ)]-Octahydro-5-oxo-4-[[(phenylmethoxy)carbonyl]amino]-7H-pyrido-[2,1-b] [1,3]thiazepine-7-carboxylic acid, methyl ester]",% Conversion,[3],100%
same,% Conversion,[4],100%
same,% Conversion,[1],95%
O=C(N[C@@H](Cc1ccc(O)cc1)C(=O)O)OCc1ccccc1 [N-α-CBZ-L-tyrosine],% Conversion,[1],100%
N[C@H](CCCCNC(=O)OCc1ccccc1)C(=O)O [N-ε-CBZ-D-Lysine],% Conversion,[1],7%
O=C(O)[C@@H]1CCCN1C(=O)OCc1ccccc1 [N-α-CBZ-L-Proline],% Conversion,[1],100%
B1,specific activity,"[3]; purified enzyme after S-200 gel filtration, CBZ-L-phenylalanine as substrate",13.9 units/mg protein
